Assay results: patent publication US10201559B2, “Compositions of selenoorganic compounds and methods of use thereof” (Alltech, Inc., priority 2014, dated 2019)
Like-named read-outs stand apart in the source and are kept apart here. Square brackets hold non-standard residues; d marks the D form. Peptide text beside a SMILES is read from it. Sec = N[C@@H](C[SeH])C(=O)O

Key:
C2C12 cells = assay: Quantitative analysis of mitochondrial potential in C2C12 cells; format: cell-based, mouse; conditions: all concentrations
Protocol: For C2C12 cells, equal number of cells (1×10^4) were seeded on Corning 96-well clear-bottom and dark-wall cell culture plates (VWR), cultured in 10% FBS DMEM media for 24 hr., and then treated with vehicle (sterilized water), compound C and D and their sulfur analogs for 24 and 48 hrs. These vehicle- or compound-treated cells were rinsed twice with PBS, incubated with Mitotracker Orange fluorescence dye at 37° C. for 30 min, and then replaced with PBS. Mitotracker Orange fluorescence intensities (mitochondrial potential) in these living cells were determined by a Bio-TeK Synergy HT Multi-Mode Fluorescence Microplate Reader (Winooski, Vt.). Eight samples per each treatment were examined for the above analysis, and data are presented as mean±sem of eight samples.

IMR-32 cells [1] = assay: Cell viability assay, IMR-32; format: cell-based, human
Protocol: (§1) Cell viability in cultured cells was determined using Promega's CellTiter96® AQueous One Solution Cell Proliferation Assay kits, according to the Manufacturer's protocol. In brief, equal number of C2C12 (1×10^4 cells/well), AML-12 (1×10^4 cells/well) and IMR-32 (2×10^4 cells/well) were seeded on 96-well clear plates (VWR) and treated with vehicle or compounds for 24, […] and/or 72 hr. Then, cultured cells were incubated with AQueous One solution (100 ul/per well) at 37° C. for 1 hr, and the absorbance of OD490 nm in each sample was determined by the Bio-Tek microplate reader. Cell viability in culture cells were determined by the subtraction of OD490 nm in cultured cells with the OD490 nm in plain culture media (without seeding of cells). Eight samples per each treatment were examined for the above analysis. Data are presented as Mean±sem of eight samples.

AML-12 cells = assay: Cell viability assay, AML-12; format: cell-based, mouse
Protocol: as §1

[2] = test system: Adult rat brain ficoll purified mitochondria; assay: Mitochondrial bioenergetics screen (Seahorse OCR) on isolated rat brain mitochondria; format: biochemical; conditions: 500 ppb, 30 min at 37° C.
Source text: A water soluble extract was obtained from selenized yeast. […] We reasoned that these selenium species would be the first to be liberated/digested from selenized yeast in its passage through the intestinal tract. […] Because we were primarily interested in the potential effects of these selenium species on mitochondrial bioenergetics, it was decided to test these selenium molecules directly using mitochondria.
Selenium concentration ranges low (50 ppb), mid (500 ppb) and high (1 ppm) were initially tested as a possible range for the compounds. […] Adult rat brain ficoll purified mitochondria were incubated with the 9 compounds for 30 min at 37° C. prior to being loading into the Seahorse Biosciences flux analyzer in triplicate. We measured OCR (Oxygen Consumption Rates) parameters in three respiratory states including ATP synthesis (State III), Complex I dependent (NADH-driven) Maximum Respiratory Capacity (State VFCCP) and Complex II (FADH-driven) dependent Maximum Respiratory Capacity (State Vsucc).

HEK293T cells = assay: Fluorescence analysis of mitochondrial potential in HEK293T cells; format: cell-based, human; conditions: dose not stated
Protocol: HEK293T cells were cultured in 8-chamber glass slides (1×10^4 cells/chamber) for 24 hours, and then treated with various concentrations of compounds or its respective sulfur analogs (dissolved in sterilized water) for 4.5 hr. These compound-treated cells were rinsed twice with PBS, and incubated with Mitotracker Orange Fluorescence Dye (Invitrogen) at 37° C. for 30 min, and then replaced with fresh PBS according to the Manufacturer's protocol. Then fluorescent signals (mitochondrial potential) in these living cells were recorded using a Zeiss Axio Vert.A1 fluorescence microscope (Thornwood, N.Y.). At least three samples in each treatment group were analyzed under the fluorescent microscope.

IMR-32 cells [3] = assay: Quantitative analysis of mitochondrial potential in IMR-32 cells; format: cell-based, human; conditions: 6 hr, compared to control
Protocol: Similar to the above studies on AML-12 cells, the mitochondrial potential per cell in living IMR-32 cells was determined using the Bio-TeK Synergy HT Multi-Mode fluorescence microplate reader with the following modifications. To improve the attachment of IMR-32 cells to culture dishes, cell culture plates were precoated with 0.1% gelatin (Sigma, St. Louis, Mo.). 2×10^4 cells per a 96-well were seeded on gelatinized 96-well plates for the above studies. To reduce the cell dislodgment, Mitotracker orange and Hoechst 33342 fluorescent dyes (diluted in culture media) were directly added to each well after vehicle- or compound-treatments. After dye incubation, cell culture media were carefully replaced with 1× PBS for the quantitation analysis of fluorescence on the microplate reader. Eight samples per each treatment were examined for the above analysis, and the experiments were repeated at least five times. Data are presented as mean±sem of eight samples.

With `Nc1ncnc2c1ncn2[C@@H]1O[C@H](CSCCC(N)C(=O)O)C(O)C1O` (stereo in doubt) [compound I, S-Adenosyl-L-homocysteine, reference compound] the mitochondrial potential (C2C12 cells) was “decreased mitochondrial potential at all concentrations”, the “cell viability (OD490 nm)” value (IMR-32 cells [1]; 24, 48 and 72 hr) was “slight decrease in viability” and the “cell viability (OD490 nm)” value (AML-12 cells; 48 hr) was “no toxic effects”.

In the case of `C[Se]C[C@H]1O[C@@H](n2cnc3c(N)ncnc32)[C@H](O)[C@@H]1O` [Compound 9, MethylSelenoadenosine], the “mitochondrial potential (bioenergetics, OCR)” value [2] is reported as “increased mitochondrial potential”.

With `N[C@@H](CCC(=O)O)C(=O)N[C@@H](C[SeH])C(=O)O` [Compound 10, Glutamylselenocysteine] (H-Glu-[Sec]-OH) the “mitochondrial potential (bioenergetics, OCR)” value [2] was “inhibited mitochondrial potential”.

With `CSC[C@H]1O[C@@H](n2cnc3c(N)ncnc32)[C@@H](O)C1O` (some centres unmarked) [compound H, 5′-Methylthioadenosine, reference compound] the “MT potential / mitochondrial activity in kidney cells” value (HEK293T cells) was “incapable of stimulating mitochondrial activity”, the mitochondrial potential (C2C12 cells) was “decreased mitochondrial potential at all concentrations” and the MT potential (IMR-32 cells [3]) was “Increased MT potential”. The “cell viability (OD490 nm)” value (IMR-32 cells [1]; 24, 48 and 72 hr) was “slight decrease in viability” and the “cell viability (OD490 nm)” value (AML-12 cells; 48 hr) was “no toxic effects”.

With `CSC[C@H](NC(=O)CC[C@H](N)C(=O)O)C(=O)O` [compound J, γ-L-glutamyl-methyl-L-cysteine, reference compound] the “MT potential / mitochondrial activity in kidney cells” value (HEK293T cells) was “incapable of stimulating mitochondrial activity”, the “cell viability (OD490 nm)” value (IMR-32 cells [1]) was “slight decrease in viability” and the “cell viability (OD490 nm)” value (AML-12 cells) was “no toxic effects”.

“Leucine-Threonine-Glycine-Selenomethionine-Alanine-Phenylalanine-Arginine [Compound 7]” was tested, and the “mitochondrial potential (bioenergetics, OCR)” value [2] was “inhibited mitochondrial potential”.
